From patent US20230255953A1, “USE OF ROLUPERIDONE IN PREVENTING RELAPSE IN SCHIZOPHRENIA PATIENTS” (Minerva Neurosciences, Inc., priority 2022, published 2023)

Tested on: patients with negative symptoms of schizophrenia
Assay: Integrated analysis of Studies #1 and #2 (pooled ITT): PANSS-derived scores (NSFS, total, positive and negative subscales), DB, OL and whole study
Assay type: in vivo, human
Parameters: key to NSFS Score change from Baseline, Median: change from Baseline in PANSS NSFS points; higher score = more severe
Protocol: The primary integrated analysis of the efficacy of Roluperidone compared with placebo for the treatment of negative symptoms of schizophrenia is based on the change from Baseline in the PANSS Marder's negative symptoms factor score (in this document referred to as NSFS) to Week 12. Efficacy is also supported by the analysis of change from Baseline in the PSP Total score and the CGI-S to Week 12.
The PANSS was assessed at the time points described in Table 4.
The PANSS-derived endpoints used in these studies and the integrated analyses are described in Table 5A and a summary of the individual PANSS items used by physicians and clinicians to measure the severity of the symptoms in a schizophrenia patient is provided in Table 5B. The scale is divided into three parts, a positive scale, which provides a “PANSS positive subscore”, a negative scale, which provides a “PANSS negative subscore”, and general psychopathology scale. The sum of these three parts provides a PANSS total score, which ranges from 30 to 210 (where higher scores indicate more severe symptoms). (See Kay, S. R., et al. “The positive and negative syndrome scale (PANSS) for schizophrenia,” Schizophr Bulletin, 13(2), 261-276 (1987) and Gopal, S., et al. “Improvement of Negative Symptoms in Schizophrenia with Paliperidone Palmitate 1-Month and 3-Month Long-Acting Injectables: Results from a Phase 3 Non-Inferiority Study” Neuropsychiatric Disease and Treatment, 681-690, DOI: 10.2147/NDT.5226296, both of which are incorporated by reference.)
The Efficacy data from Study Nos. 1 and 2 were pooled. The majority of patients in the pooled ITT population completed the DB period (502 patients overall, 66.3%), with similar rates in each treatment group (placebo: 69.8%, 32 mg Roluperidone: 65.3%, and 64 mg Roluperidone: 63.8%) (Table 12). The majority (62.7%) of those who completed the DB period entered the OL period. The most common reason for discontinuation during the DB period among patients overall was withdrawal of consent (15.6%), followed by adverse events (7.3%) and lack of efficacy (5.4%) (Table 12). […] Approximately twice as many patients in the Roluperidone groups (32 mg: 8.5%; 64 mg: 9.1%) discontinued due to adverse events compared with patients in the placebo group (4.3%). More patients in the placebo group discontinued due to lack of efficacy (6.7%) than in the Roluperidone groups (32 mg: 4.4%; 64 mg: 5.1%). The low number of patients who discontinued due to lack of efficacy or withdrawal of consent probably reflects a low level of worsening of positive symptoms.
The integrated analysis supporting the efficacy of Roluperidone as a treatment for the negative symptoms of schizophrenia in adults is presented below.

[1] = Placebo in DB to Roluperidone 32 mg in OL, pooled ITT
[2] = Placebo in DB to Roluperidone 64 mg in OL, pooled ITT
[3] = Placebo in DB to Roluperidone in OL, Total, pooled ITT
[4] = Roluperidone Total, Week 2, DB, pooled ITT
[5] = Roluperidone Total, Week 2, pooled ITT

Substance: 1H-Isoindol-1-one,2-[ [1-[2-(4-fluorophenyl)-2-oxoethyl]-4-piperidinyl]methyl]-2,3-dihydro-, hydrochloride, hydrate (1:1:2) [Roluperidone]
- Patients with moderate improvement in NSFS (magnitude of change 6-8) (64 mg, Week 12, pooled): 19%
- Patients with moderate or high improvement in NSFS, total (64 mg, Week 12, pooled): 32%
- NSFS, LS mean decrease from Baseline compared with placebo (64 mg, Week 12, pooled ITT): −3.9
- PANSS Positive Subscale Score change from Baseline, LS mean (SE) (64 mg, Week 12, pooled ITT): −0.2 (0.21)
- PANSS Positive Subscale Score change from Baseline, Mean (SD) (64 mg, Week 12, pooled ITT): −0.5 (2.88)
- PANSS Positive Subscale Score change from Baseline, Median (64 mg, Week 12, pooled ITT): 0.0
- PANSS Positive Subscale Score, Difference (95% CI) in LS mean (vs placebo) (64 mg, Week 12, pooled ITT): −0.4
- PANSS negative subscale score, LS mean change from Baseline compared with placebo (64 mg, Week 12, pooled ITT): −1.3
- PANSS positive subscale score, LS mean change from Baseline compared with placebo (64 mg, Week 12, pooled ITT): −0.4
- PANSS total score, LS mean change from Baseline compared with placebo (64 mg, Week 12, pooled ITT): −2.8
- Patients with 20% Reduction in NSFS at Week 12, percent (64 mg, responder analysis): 39%
- Patients with 20% Reduction in PANSS Total Score at Week 12, percent (64 mg, responder analysis): 19%
- Number of Patients with 20% Reduction in PANSS Total Score at Week 12 (64 mg, responder analysis, n/N): 34/176
- Number of Patients with 20% reduction in NSFS at Week 12 (64 mg, responder analysis, n/N): 68/176
- NSFS Change from Active BL to Week 24, Mean (SD) [1]: −2.1 (2.56)
- NSFS Change from Active BL to Week 24, Median [1]: −2.0
- NSFS Change from Active BL to Week 52, Mean (SD) [1]: −4.5 (3.60)
- NSFS Change from Active BL to Week 52, Median [1]: −4.0
- NSFS Change from Active BL to Week 54, Mean (SD) [1]: −4.7 (3.60)
- NSFS Change from Active BL to Week 54, Median [1]: −4.0
- NSFS Change from Open-label BL to Week 24, Mean (SD) [1]: −2.1 (2.56)
- NSFS Change from Open-label BL to Week 24, Median [1]: −2.0
- NSFS Change from Open-label BL to Week 52, Mean (SD) [1]: −4.5 (3.60)
- NSFS Change from Open-label BL to Week 52, Median [1]: −4.0
- NSFS Change from Open-label BL to Week 54, Mean (SD) [1]: −4.7 (3.60)
- NSFS Change from Open-label BL to Week 54, Median [1]: −4.0
- NSFS Change from Study BL to Week 24, Mean (SD) [1]: −5.3 (3.72)
- NSFS Change from Study BL to Week 24, Median [1]: −5.0
- NSFS Change from Study BL to Week 52, Mean (SD) [1]: −7.9 (3.69)
- NSFS Change from Study BL to Week 52, Median [1]: −8.0
- NSFS Change from Study BL to Week 54, Mean (SD) [1]: −7.9 (4.29)
- NSFS Change from Study BL to Week 54, Median [1]: −7.0
- NSFS Change from Active BL to Week 24, Mean (SD) [2]: −1.8 (3.55)
- NSFS Change from Active BL to Week 24, Median [2]: −2.0
- NSFS Change from Active BL to Week 52, Mean (SD) [2]: −4.9 (4.72)
- NSFS Change from Active BL to Week 52, Median [2]: −6.0
- NSFS Change from Active BL to Week 54, Mean (SD) [2]: −4.2 (4.78)
- NSFS Change from Active BL to Week 54, Median [2]: −5.0
- NSFS Change from Open-label BL to Week 24, Mean (SD) [2]: −1.8 (3.55)
- NSFS Change from Open-label BL to Week 24, Median [2]: −2.0
- NSFS Change from Open-label BL to Week 52, Mean (SD) [2]: −4.9 (4.72)
- NSFS Change from Open-label BL to Week 52, Median [2]: −6.0
- NSFS Change from Open-label BL to Week 54, Mean (SD) [2]: −4.2 (4.78)
- NSFS Change from Open-label BL to Week 54, Median [2]: −5.0
- NSFS Change from Study BL to Week 24, Mean (SD) [2]: −4.2 (3.38)
- NSFS Change from Study BL to Week 24, Median [2]: −4.0
- NSFS Change from Study BL to Week 52, Mean (SD) [2]: −7.0 (3.76)
- NSFS Change from Study BL to Week 52, Median [2]: −7.5
- NSFS Change from Study BL to Week 54, Mean (SD) [2]: −6.6 (4.15)
- NSFS Change from Study BL to Week 54, Median [2]: −7.0
- NSFS Change from Active BL to Week 24, Mean (SD) [3]: −1.9 (3.06)
- NSFS Change from Active BL to Week 24, Median [3]: −2.0
- NSFS Change from Active BL to Week 52, Mean (SD) [3]: −4.7 (4.17)
- NSFS Change from Active BL to Week 52, Median [3]: −5.0
- NSFS Change from Active BL to Week 54, Mean (SD) [3]: −4.4 (4.18)
- NSFS Change from Active BL to Week 54, Median [3]: −5.0
- NSFS Change from Open-label BL to Week 24, Mean (SD) [3]: −1.9 (3.06)
- NSFS Change from Open-label BL to Week 24, Median [3]: −2.0
- NSFS Change from Open-label BL to Week 52, Mean (SD) [3]: −4.7 (4.17)
- NSFS Change from Open-label BL to Week 52, Median [3]: −5.0
- NSFS Change from Open-label BL to Week 54, Mean (SD) [3]: −4.4 (4.18)
- NSFS Change from Open-label BL to Week 54, Median [3]: −5.0
- NSFS Change from Study BL to Week 24, Mean (SD) [3]: −4.8 (3.60)
- NSFS Change from Study BL to Week 24, Median [3]: −4.0
- NSFS Change from Study BL to Week 52, Mean (SD) [3]: −7.5 (3.72)
- NSFS Change from Study BL to Week 52, Median [3]: −8.0
- NSFS Change from Study BL to Week 54, Mean (SD) [3]: −7.3 (4.25)
- NSFS Change from Study BL to Week 54, Median [3]: −7.0
- NSFS Score change from Baseline, Mean (SD) [4]: −1.3 (2.25)
- NSFS Score change from Baseline, Median [4]: −1.0
- PANSS Negative Subscale Score change from Baseline, Mean (SD) [4]: −1.3 (2.20)
- PANSS Negative Subscale Score change from Baseline, Median [4]: −1.0
- PANSS Total Score change from Baseline, Mean (SD) [4]: −2.0 (6.89)
- PANSS Total Score change from Baseline, Median [4]: −2.0
- PANSS Positive Subscale Score change from Baseline, Mean (SD) [5]: 0.1 (2.78)
- PANSS Positive Subscale Score change from Baseline, Median [5]: 0.0
- NSFS Score change from Baseline, Mean (SD) (Roluperidone Total, Week 4, DB, pooled ITT): −2.4 (2.64)
